In patent publication US20210380547A1, “UREA DERIVATIVES FOR TREATING AND/OR PREVENTING CANCER” (CENTRE NATIONAL DE LA RECHERCHE SCIENTIFIQUE, priority 2018, published 2021):

What was measured:
A498 = test: XTT cell viability assay, A498; assay type: cell-based, human; conditions: Homo sapiens, A498; XTT assay (48 h); standard deviation of 10%; read-out: EC50 (μM) Kidney A498
Procedure: (§1) Fifty microliters of sodium 3′-[1-phenylaminocarbonyl)-3,4-tetrazolium]-bis(4-methoxy-6-nitro) benzene sulfonic acid hydrate (XTT) reagent was added to each well. The assay is based on the cleavage of the yellow tetrazolium salt XTT to form an orange formazan dye by metabolically active cells. The absorbance of the formazan product, reflecting cell viability, was measured at 490 nm. Each assay was performed in quadruplicate.
(§2) Compounds #1-#14 have been assayed as potential anti-proliferative agents against a panel of human breast head and neck, and kidney tumor cells and hematological malignancies, selected on the basis of their aggressiveness (e.g. incurable triple-negative breast cancer cells: MDA-MB-231; kidney ccRCC cells: RCC4, A498 and 786-O and 786R; head and neck cancer cells: CAL33, CAL33RR, CAL27, and CAL27RR; acute myeloid cell lines: OCI-AML2, OCI-AML3, MolM13, and MolM14; myelodysplastic cell line: SM1; and chronic myeloid cell line: CML). All these cell lines share as common denominator the expression of CXCR1 and CXCR2. The EC50 values have been measured by a XTT colorimetric assay, and compared to those of SB-225002, used as a reference; the results are listed in Table 1.

[1] = system: healthy human fibroblasts (FHN); test: FACS analysis of cell death markers (AV, PI), healthy fibroblasts; assay type: cell-based; conditions: 5 μM, 48 h
Procedure: (§3) FIG. 1: Observation by FACS analyses of early (Annexin AV) and late (Propidium Iodide, PI) apoptosis markers expressed by healthy and malignant cells after treatment with compounds #1 and #2 at 5 μM. CT: negative control.
(§4) Apoptosis analysis: After stimulation, cells were washed with ice-cold PBS and were stained with the annexin-V-fluos staining kit (Roche, Meylan, France) according to the manufacturer's procedure. Fluorescence was measured by using the FL2 (AV) and FL3 (propidium iodide, PI) channels of a fluorescence-activated cell sorter apparatus (Calibur cytometer).
(§5) To complete these XTT assays, malignant (ccRCC and hematological) and healthy (human fibroblasts FHN) cells have been grown with compounds #1 or #2, and after 48h the expression of cell death markers (AV and PI) has been quantified by FACS analyses (FIG. 1).

OCI-AML2 = test: XTT cell viability assay, OCI-AML2; assay type: cell-based, human; conditions: Homo sapiens, OCI-AML2; XTT assay (48 h); standard deviation of 10%; read-out: EC50 (μM) AML OCI-AML2
Procedure: as §1, §2

OCI-AML3 = test: XTT cell viability assay, OCI-AML3; assay type: cell-based, human; conditions: Homo sapiens, OCI-AML-3; XTT assay (48 h); standard deviation of 10%
Procedure: as §1, §2

786-O = test: XTT cell viability assay, 786-O; assay type: cell-based, human; conditions: Homo sapiens, 786-0; XTT assay (48 h); standard deviation of 10%; read-out: EC50 (μM) Kidney 786-O
Procedure: (§6) A, B: Naive (786-O, A), and sunitinib-resistant (786-R, B) 786-O cells, were treated with compound #1 or sunitinib (1 to 10 μM) for 48 hr. Cell viability was measured by XTT assays;
(§7) D, E: 786-O (D), 786-R (E), were treated with 2.5 μM compound #1 or 2.5 μM sunitinib for 24 h to 96 h. The cells metabolism was measured by XTT assay;
as §1, §2

MolM14 = test: XTT cell viability assay, MolM14; assay type: cell-based, human; conditions: Homo sapiens, MOLM-14; XTT assay (48 h); standard deviation of 10%; read-out: EC50 (μM) AML MolM14
Procedure: as §1, §2

MDA-MB-231 = test: XTT cell viability assay, MDA-MB-231; assay type: cell-based; conditions: Homo sapiens, XTT assay (48 h), standard deviation of 10%, read-out: EC50 (μM) Breast MDA-MB-231
Procedure: as §1, §2

K562 = test: XTT cell viability assay, K562; assay type: cell-based, human; conditions: Homo sapiens, K562; XTT assay (48 h); standard deviation of 10%; read-out: EC50 (μM) CML K562
Procedure: as §1, §2

[2] = system: malignant (ccRCC and hematological) cells; test: FACS analysis of cell death markers (AV, PI), malignant cells; assay type: cell-based, human; conditions: 5 μM, 48 h
Procedure: as §3, §4, §5

MolM13 = test: XTT cell viability assay, MolM13; assay type: cell-based, human; conditions: Homo sapiens, MOLM-13; XTT assay (48 h); standard deviation of 10%; read-out: EC50 (μM) AML MolM13
Procedure: as §1, §2

SKM1 = test: XTT cell viability assay, SKM1; assay type: cell-based, human; conditions: Homo sapiens, SKM-1; XTT assay (48 h); standard deviation of 10%; read-out: EC50 (μM) MDS SKM1
Procedure: as §1, §2

786R = test: XTT cell viability assay, 786R (sunitinib-resistant); assay type: cell-based, human; conditions: Homo sapiens, 48 h, XTT assay (48 h); sunitinib-resistant; standard deviation of 10%; read-out: EC50 (μM) Kidney 786R
Procedure: as §6, §7, §1, §2

RCC4 = test: XTT cell viability assay, RCC4; assay type: cell-based; conditions: Homo sapiens, XTT assay (48 h), standard deviation of 10%, read-out: EC50 (μM) Kidney RCC4
Procedure: as §1, §2

[3] = system: macular degeneration model; test: Macular degeneration model, clinical angiography; assay type: in vivo, mice; conditions: Day 14, intraperitoneal 400 μg 3 times a week
Procedure: FIG. 9: Evaluation of compounds #1 and #3 on macular degeneration. Clinical angiography at Day 14: Evaluation of the intensity of the lesion by a score from 0 to 3 (0: no leak; 1: light intensity; 2: moderate intensity; 3: immense marking) on mice treated with compounds #1 and #3. The intensities of the lesions were reported, each point corresponding to a lesion. Three lesions were performed on the eyes of each mouse; […]. • 4 groups of 12 mice were induced on the eyes by laser burnt as follows: • G1: vehicle; • G2 and G3: Compounds #1 and #3: intraperitoneal injection of 400 μg of product 3 times a week; and • G4: dexamethasone (2 mg/kg/day) orally. Clinical angiography at Day 14 on the 12 animals: evaluation of the intensity of the lesion by a score of 0 to 3 (0 no leak, 1=light intensity, 2=moderate intensity, 3=intense marking).

[4] = system: CXCL7-dependent HuVEC migration; test: Boyden chamber migration assay, CXCL7-dependent; assay type: cell-based; conditions: CXCL7 (50 ng/ml)
Procedure: CXCL7 or VEGFA-stimulated chemotaxis assays were monitored using modified Boyden chambers containing polycarbonate membranes (8-μm pores, Transwell; Corning, Sigma). Cells were seeded on the upper side of the filters and chambers were placed on 24-well plates containing CXCL7 (50 ng/ml) or VEGFA (50 ng/ml). Cells were allowed to migrate for 24 hr at 37° C. in 5% CO2. Migratory cells on the lower membrane surface were fixed in 3% paraformaldehyde, stained with 0.1% crystal violet.

Row | SMILES | EC50 (A498) | apoptosis of healthy human fibroblasts (FHN) [1] | EC50 (OCI-AML2) | EC50 (OCI-AML3) | EC50 (786-O) | EC50 (MolM14) | EC50 (MDA-MB-231) | EC50 (K562) | early (AV) and late (PI) apoptosis markers on malignant cells [2] | EC50 (MolM13) | EC50 (SKM1) | EC50 (786R) | EC50 (RCC4) | intensity of the lesion (score 0 to 3), clinical angiography [3] | reduction of HuVEC CXCL7-dependent motility (comparison) [4]
1 | O=C(Nc1nc2ccc([N+](=O)[O-])cc2s1)Nc1ccccc1Cl [Compound #2, 1-(2-chlorophenyl)-3-(6-nitrobenzo[d]thiazol-2-yl)urea] | 5 µM | no increased apoptosis over the control experiment | 10 µM | 10 µM | 5 µM | 10 µM | 8 µM | 7 µM | cytotoxic effect on malignant cells | 5 µM | 10 µM | 8 µM | 7 µM | – | –
2 | CCOc1ccc2nc(NC(=O)Nc3ccccc3C)sc2c1 [Compound #3, 1-(6-ethoxybenzo[d]thiazol-2-yl)-3-(o-tolyl)urea] | 15 µM | – | 15 µM | 7 µM | 15 µM | 10 µM | 12 µM | 4 µM | – | 15 µM | 15 µM | – | > 25 µM | significant effect | –
3 | Cc1c(F)cccc1NC(=O)Nc1ccc(Cl)c(S(=O)(=O)[C@H]2CCCNC2)c1O [danirixin, reference compound] | – | – | – | – | – | – | – | – | – | – | – | – | – | – | less efficient than compound #1
